Calls of active or inactive are those of the source. How the calls were made is not given here.
Tested on: CCRIS mutagenicity, Ames/micronucleus/aberration tests
Test: CCRIS mutagenicity studies
[1] = Test System: AMES SALMONELLA TYPHIMURIUM, Strain/Indicator: TA97, Metabolic Activation: NONE, Method: STANDARD PLATE
[2] = Test System: AMES SALMONELLA TYPHIMURIUM, Strain/Indicator: TA98, Metabolic Activation: RAT, LIVER, S-9, AROCLOR 1254, Method: STANDARD PLATE
[3] = Test System: AMES SALMONELLA TYPHIMURIUM, Strain/Indicator: TA100, Metabolic Activation: RAT, LIVER, S-9, AROCLOR 1254, Method: STANDARD PLATE
[4] = Test System: AMES SALMONELLA TYPHIMURIUM, Strain/Indicator: TA102, Metabolic Activation: NONE, Method: STANDARD PLATE
[5] = Test System: AMES SALMONELLA TYPHIMURIUM, Strain/Indicator: TA104, Metabolic Activation: NONE, Method: STANDARD PLATE
[6] = Test System: AMES SALMONELLA TYPHIMURIUM, Strain/Indicator: TA1535, Metabolic Activation: RAT, LIVER, S-9, AROCLOR 1254, Method: STANDARD PLATE
[7] = Test System: AMES SALMONELLA TYPHIMURIUM, Strain/Indicator: TA1537, Metabolic Activation: NONE, Method: STANDARD PLATE
[8] = Test System: AMES SALMONELLA TYPHIMURIUM, Strain/Indicator: TA1537, Metabolic Activation: RAT, LIVER, S-9, AROCLOR 1254, Method: STANDARD PLATE
[9] = Test System: AMES SALMONELLA TYPHIMURIUM, Strain/Indicator: TA1538, Metabolic Activation: NONE, Method: STANDARD PLATE
[10] = Test System: AMES SALMONELLA TYPHIMURIUM, Strain/Indicator: TA98, Metabolic Activation: NONE, Method: STANDARD PLATE
[11] = Test System: AMES SALMONELLA TYPHIMURIUM, Strain/Indicator: TA100, Metabolic Activation: NONE, Method: STANDARD PLATE
[12] = Test System: AMES SALMONELLA TYPHIMURIUM, Strain/Indicator: TA1535, Metabolic Activation: NONE, Method: STANDARD PLATE
[13] = Test System: AMES SALMONELLA TYPHIMURIUM, Strain/Indicator: TA92, Metabolic Activation: NONE, Method: STANDARD PLATE
[14] = Test System: AMES SALMONELLA TYPHIMURIUM, Strain/Indicator: TA92, Metabolic Activation: RAT, KIDNEY, S-9, Method: STANDARD PLATE
[15] = Test System: CHINESE HAMSTER V-79, Strain/Indicator: V-79/6-THIOGUANINE, Metabolic Activation: NONE, Method: STANDARD PLATE
[16] = Test System: AMES SALMONELLA TYPHIMURIUM, Strain/Indicator: TA98, Metabolic Activation: NONE, Method: PREINCUBATION
[17] = Test System: AMES SALMONELLA TYPHIMURIUM, Strain/Indicator: TA100, Metabolic Activation: NONE, Method: PREINCUBATION

## NNc1nnc(NN)c2ccccc12
[1]
  mutagenic call: active; positive
[2]
  mutagenic call: active; positive
[3]
  mutagenic call: inactive; negative
[4]
  mutagenic call: active; positive
[5]
  mutagenic call: inactive; negative
[6]
  mutagenic call: inactive; negative
[7]
  mutagenic call: active; positive
[8]
  mutagenic call: active; positive
[9]
  mutagenic call: active; positive

## CC(O)/C=C/C=O (configuration not stated)
Test System: AMES SALMONELLA TYPHIMURIUM, Strain/Indicator: TA104, Metabolic Activation: NONE, Method: PREINCUBATION
  mutagenic call: active; positive

## O=Nc1c(-c2ccc([N+](=O)[O-])cc2)nc2sccn12
[10]
  mutagenic call: active; positive
[11]
  mutagenic call: active; positive
[12]
  mutagenic call: active; positive
[7]
  mutagenic call: active; positive
[9]
  mutagenic call: active; positive

## ONc1ccc(Cl)c(Cl)c1
[1]
  mutagenic call: inactive; negative
[10]
  mutagenic call: inactive; negative
[11]
  mutagenic call: inactive; negative
[5]
  mutagenic call: inactive; negative
Test System: CHINESE HAMSTER OVARY, Strain/Indicator: CHO-K1-BH4 (HGPRT), Metabolic Activation: NONE
  mutagenic call: inactive; negative

## Nc1ccc2c(ccc3c4ccccc4ccc23)c1
Test System: AMES SALMONELLA TYPHIMURIUM, Strain/Indicator: TA98, Metabolic Activation: RAT LIVER S-9, AROCLOR 1254 (10%), Method: STANDARD PLATE
  mutagenic call: active; positive
Test System: AMES SALMONELLA TYPHIMURIUM, Strain/Indicator: TA98, Metabolic Activation: RAT, LIVER, CYTOSOL, AROCLOR 1254, Method: STANDARD PLATE
  mutagenic call: active; positive
Test System: AMES SALMONELLA TYPHIMURIUM, Strain/Indicator: TA98, Metabolic Activation: RAT, LIVER, MICROSOMES, AROCLOR 1254, Method: STANDARD PLATE
  mutagenic call: active; positive

## C[C@H](N)C(=O)c1ccccc1
End Point: In vivo chromosomal aberrations, Test System: Blood from cardiac puncture, Species: Rat, Strain/Sex: Sprague-Dawley/Male, Route: Oral
  mutagenic call: active; positive (high dose significantly different from control and low dose)

## CSC[C@H](NC(=O)COc1cccc2cnccc12)C(=O)N[C@@H](Cc1ccccc1)[C@H](O)C(=O)N1CSC[C@H]1C(=O)NC(C)(C)C
Test System: AMES SALMONELLA TYPHIMURIUM, Strain/Indicator: TA98, Metabolic Activation: HAMSTER, LIVER, S-9, AROCLOR 1254, Method: STANDARD PLATE
  mutagenic call: inactive; negative
[10]
  mutagenic call: inactive; negative
[2]
  mutagenic call: inactive; negative
Test System: AMES SALMONELLA TYPHIMURIUM, Strain/Indicator: TA100, Metabolic Activation: HAMSTER, LIVER, S-9, AROCLOR 1254, Method: STANDARD PLATE
  mutagenic call: inactive; negative
[11]
  mutagenic call: inactive; negative
[3]
  mutagenic call: inactive; negative
Test System: AMES SALMONELLA TYPHIMURIUM, Strain/Indicator: TA1535, Metabolic Activation: HAMSTER, LIVER, S-9, AROCLOR 1254, Method: STANDARD PLATE
  mutagenic call: inactive; negative
[12]
  mutagenic call: inactive; negative
[6]
  mutagenic call: inactive; negative
Test System: AMES SALMONELLA TYPHIMURIUM, Strain/Indicator: TA1537, Metabolic Activation: HAMSTER, LIVER, S-9, AROCLOR 1254, Method: STANDARD PLATE
  mutagenic call: inactive; negative
[7]
  mutagenic call: inactive; negative
[8]
  mutagenic call: inactive; negative
Test System: AMES SALMONELLA TYPHIMURIUM, Strain/Indicator: TA1538, Metabolic Activation: HAMSTER, LIVER, S-9, AROCLOR 1254, Method: STANDARD PLATE
  mutagenic call: inactive; negative
[9]
  mutagenic call: inactive; negative
Test System: AMES SALMONELLA TYPHIMURIUM, Strain/Indicator: TA1538, Metabolic Activation: RAT, LIVER, S-9, AROCLOR 1254, Method: STANDARD PLATE
  mutagenic call: inactive; negative
Test System: Mouse lymphoma, Strain/Indicator: L5178Y (tk+/tk-), Metabolic Activation: None, Method: Suspension/plate
  mutagenic call: inactive; negative
Test System: Mouse lymphoma, Strain/Indicator: L5178Y (tk+/tk-), Metabolic Activation: Rat, Liver, S-9, Aroclor 1254, Method: Suspension/plate
  mutagenic call: active; equivocal (previous evaluation positive)

## CC(C)(S)[C@@H](N)C(=O)O
Test System: AMES SALMONELLA TYPHIMURIUM, Strain/Indicator: TA92, Metabolic Activation: HOMOGENIZED V-79, Method: STANDARD PLATE
  mutagenic call: active; positive
[13]
  mutagenic call: active; positive
[14]
  mutagenic call: active; positive
Test System: AMES SALMONELLA TYPHIMURIUM, Strain/Indicator: TA92, Metabolic Activation: RAT, LIVER, S-9, Method: STANDARD PLATE
  mutagenic call: active; positive
[11]
  mutagenic call: active; positive
Test System: AMES SALMONELLA TYPHIMURIUM, Strain/Indicator: TA100, Metabolic Activation: RAT, KIDNEY, S-9, Method: STANDARD PLATE
  mutagenic call: active; positive
Test System: AMES SALMONELLA TYPHIMURIUM, Strain/Indicator: TA100, Metabolic Activation: RAT, LIVER, S-9, Method: STANDARD PLATE
  mutagenic call: active; positive
[4]
  mutagenic call: active; positive
[15]
  mutagenic call: inactive; negative

## CC(=O)Nc1ccc(S(N)(=O)=O)cc1
[16]
  mutagenic call: inactive; negative
Test System: AMES SALMONELLA TYPHIMURIUM, Strain/Indicator: TA98, Metabolic Activation: RAT, LIVER, S-9, AROCLOR 1254, Method: PREINCUBATION
  mutagenic call: inactive; negative
[17]
  mutagenic call: inactive; negative
Test System: AMES SALMONELLA TYPHIMURIUM, Strain/Indicator: TA100, Metabolic Activation: RAT, LIVER, S-9, AROCLOR 1254, Method: PREINCUBATION
  mutagenic call: inactive; negative

## Cc1nc2ccc(N(C)C)c(C)c2nc1C
[16]
  mutagenic call: inactive; negative
Test System: AMES SALMONELLA TYPHIMURIUM, Strain/Indicator: TA98, Metabolic Activation: RAT, LIVER, S-9, PCB, Method: PREINCUBATION
  mutagenic call: active; positive
[17]
  mutagenic call: inactive; negative
Test System: AMES SALMONELLA TYPHIMURIUM, Strain/Indicator: TA100, Metabolic Activation: RAT, LIVER, S-9, PCB, Method: PREINCUBATION
  mutagenic call: active; positive

## CC(C)=C(Cl)C=O
Test System: AMES SALMONELLA TYPHIMURIUM, Strain/Indicator: TA98, Metabolic Activation: NONE, Method: PREINCUBATION, LIQUID INCUBATION
  mutagenic call: inactive; negative
Test System: AMES SALMONELLA TYPHIMURIUM, Strain/Indicator: TA100, Metabolic Activation: NONE, Method: LIQUID INCUBATION
  mutagenic call: active; positive
Test System: AMES SALMONELLA TYPHIMURIUM, Strain/Indicator: TA100, Metabolic Activation: NONE, Method: PREINCUBATION, LIQUID INCUBATION
  mutagenic call: active; positive
Test System: AMES SALMONELLA TYPHIMURIUM, Strain/Indicator: TA1538, Metabolic Activation: NONE, Method: PREINCUBATION, LIQUID INCUBATION
  mutagenic call: inactive; negative

## C=CCCC1CO1 (configuration not stated)
[11]
  mutagenic call: active; positive
[12]
  mutagenic call: active; positive

## CC(=O)N[C@@H](CS)C(=O)O
[13]
  mutagenic call: inactive; negative
[14]
  mutagenic call: active; positive
[1]
  mutagenic call: inactive; negative
Test System: AMES SALMONELLA TYPHIMURIUM, Strain/Indicator: TA97, Metabolic Activation: RAT, KIDNEY, S-9, Method: STANDARD PLATE
  mutagenic call: active; positive
[4]
  mutagenic call: inactive; negative
[5]
  mutagenic call: inactive; negative
Test System: AMES SALMONELLA TYPHIMURIUM, Strain/Indicator: TA104, Metabolic Activation: RAT, KIDNEY, S-9, Method: STANDARD PLATE
  mutagenic call: active; positive
[15]
  mutagenic call: inactive; negative

From PubChem BioAssay AID1259407 (Chemical Carcinogenesis Research Information System (CCRIS), 2018)
